Tested on: HIV-1 (IIIB) in MT-4 cells
Experiment: MT-4 HIV assay
Type: cell-based
Details: Human immunodeficiency virus 1, MT4, 120 h
Procedure, shortened: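 Antiviral activity was read by Cell Titer Glo after a 5-day, 37 °C culture of MT-4 cells pre-infected with a 1:250 dilution of HIV-1 (IIIB). Compounds were tested as threefold dilution series in complete RPMI. Controls were no drug, mock infection and 5 uM AZT.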

Going from `COC(=O)N[C@H](C(=O)N[C@@H](Cc1ccc(-c2cnc(N3C[C@H]4C[C@@H]3CN4C3COC3)nc2)cc1)[C@@H](O)CN(Cc1c(F)cc(-c2ccn(CC(F)F)n2)cc1F)NC(=O)[C@@H](NC(=O)OC)C(C)(C)C(F)(F)F)C(C)(C)C(F)(F)F` [Example 191, Methyl ((5S,8S,9S,14S)-11-(4-(1-(2,2-difluoroethyl)-1H-pyrazol-3-yl)-2,6-difluorobenzyl)-16,16,16-trifluoro-9-hydroxy-15,15-dimethyl-8-(4-(2-((1R,4R)-5-(oxetan-3-yl)-2,5-diazabicyclo[2.2.1]heptan-2-yl)pyrimidin-5-yl)benzyl)-3,6,13-trioxo-5-(1,1,1-trifluoro-2-methylpropan-2-yl)-2-oxa-4,7,11,12-tetraazahexadecan-14-yl)carbamate] to `COC(=O)N[C@H](C(=O)N[C@@H](Cc1ccc(-c2ccc(N3C[C@H]4C[C@@H]3CN4C3COC3)nc2)cc1)[C@@H](O)CN(Cc1c(F)cc(-c2ccn(C(F)F)n2)cc1F)NC(=O)[C@@H](NC(=O)OC)C(C)(C)C(F)(F)F)C(C)(C)C(F)(F)F` [Example 196, Methyl ((5S,8S,9S,14S)-11-(4-(1-(difluoromethyl)-1H-pyrazol-3-yl)-2,6-difluorobenzyl)-16,16,16-trifluoro-9-hydroxy-15,15-dimethyl-8-(4-(6-((1R,4R)-5-(oxetan-3-yl)-2,5-diazabicyclo[2.2.1]heptan-2-yl)pyridin-3-yl)benzyl)-3,6,13-trioxo-5-(1,1,1-trifluoro-2-methylpropan-2-yl)-2-oxa-4,7,11,12-tetraazahexadecan-14-yl)carbamate], the EC50 falls from 17.4 nM to 10.5 nM (1.7-fold).

First: COC(=O)N[C@H](C(=O)N[C@@H](Cc1ccc(-c2ccc(N3C[C@H]4C[C@@H]3CN4C3COC3)nc2)cc1)[C@@H](O)CN(Cc1c(F)cc(-c2ccn(C3CC3)n2)cc1F)NC(=O)[C@@H](NC(=O)OC)C(C)(C)C(F)(F)F)C(C)(C)C(F)(F)F [Example 194, Methyl ((5S,8S,9S,14S)-11-(4-(1-cyclopropyl-1H-pyrazol-3-yl)-2,6-difluorobenzyl)-16,16,16-trifluoro-9-hydroxy-15,15-dimethyl-8-(4-(6-((1R,4R)-5-(oxetan-3-yl)-2,5-diazabicyclo[2.2.1]heptan-2-yl)pyridin-3-yl)benzyl)-3,6,13-trioxo-5-(1,1,1-trifluoro-2-methylpropan-2-yl)-2-oxa-4,7,11,12-tetraazahexadecan-14-yl)carbamate]
Second: COC(=O)N[C@H](C(=O)N[C@H](C(=O)N[C@@H](Cc1ccc(C#Cc2cnc(N3CC4CC(C3)N4C3COC3)nc2)cc1)[C@@H](O)CN(Cc1c(F)cc(-c2ccn(CC(F)F)n2)cc1F)NC(=O)[C@@H](NC(=O)OC)C(C)(C)C)C(C)(C)C)C(C)(C)C [Example 223, Methyl ((5S,8S,11S,12S,17S)-5,8-di-tert-butyl-14-(4-(1-(2,2-difluoroethyl)-1H-pyrazol-3-yl)-2,6-difluorobenzyl)-12-hydroxy-18,18-dimethyl-11-(4-((2-(6-(oxetan-3-yl)-3,6-diazabicyclo[3.1.1]heptan-3-yl)pyrimidin-5-yl)ethynyl)benzyl)-3,6,9,16-tetraoxo-2-oxa-4,7,10,14,15-pentaazanonadecane-17-yl)carbamate]
The EC50 of the first is 1.8-fold lower: 7.2 nM for the first, 12.9 nM for the second.

Work on `COC(=O)N[C@H](C(=O)N[C@H](C(=O)N[C@@H](Cc1ccc(C#Cc2cnc(N3CC4CC(C3)N4C3COC3)nc2)cc1)[C@@H](O)CN(Cc1c(F)cc(-c2ccn(CC(F)F)n2)cc1F)NC(=O)[C@@H](NC(=O)OC)C(C)(C)C)C(C)(C)C)C(C)C` [Example 222, Methyl ((5S,8S,11S,12S,17S)-8-(tert-butyl)-14-(4-(1-(2,2-difluoroethyl)-1H-pyrazol-3-yl)-2,6-difluorobenzyl)-12-hydroxy-5-isopropyl-18,18-dimethyl-11-(4-((2-(6-(oxetan-3-yl)-3,6-diazabicyclo[3.1.1]heptan-3-yl)pyrimidin-5-yl)ethynyl)benzyl)-3,6,9,16-tetraoxo-2-oxa-4,7,10,14,15-pentaazanonadecane-17-yl)carbamate] yielded an EC50 of 12.9 nM.

Same assay, conditions: Human immunodeficiency virus 1, MT4, 120 h; HIV-1 (IIIB), MT-4 cells, 5 days, Cell Titer Glo; read-out: EC50

Going from `COC(=O)N[C@H](C(=O)NN(Cc1c(F)cc(-c2ccn(CC(F)F)n2)cc1F)C[C@H](O)[C@H](Cc1ccc(-c2cnc(N3CC4CCC(C3)N4C3COC3)nc2)cc1)NC(=O)[C@@H](NC(=O)OC)C(C)(C)C(F)(F)F)C(C)(C)C` [Example 193, Methyl ((5S,8S,9S,14S)-11-(4-(1-(2,2-difluoroethyl)-1H-pyrazol-3-yl)-2,6-difluorobenzyl)-9-hydroxy-15,15-dimethyl-8-(4-(2-(8-(oxetan-3-yl)-3,8-diazabicyclo[3.2.1]octan-3-yl)pyrimidin-5-yl)benzyl)-3,6,13-trioxo-5-(1,1,1-trifluoro-2-methylpropan-2-yl)-2-oxa-4,7,11,12-tetraazahexadecan-14-yl)carbamate] to `COC(=O)N[C@H](C(=O)N[C@@H](Cc1ccc(-c2ccc(N3CC4CC(C3)N4C3COC3)nc2)cc1)[C@@H](O)CN(Cc1c(F)cc(-c2ccn(C(F)F)n2)cc1F)NC(=O)[C@@H](NC(=O)OC)C(C)(C)C(F)(F)F)C(C)(C)C(F)(F)F` [Example 202, Methyl ((5S,8S,9S,14S)-11-(4-(1-(difluoromethyl)-1H-pyrazol-3-yl)-2,6-difluorobenzyl)-16,16,16-trifluoro-9-hydroxy-15,15-dimethyl-8-(4-(6-(6-(oxetan-3-yl)-3,6-diazabicyclo[3.1.1]heptan-3-yl)pyridin-3-yl)benzyl)-3,6,13-trioxo-5-(1,1,1-trifluoro-2-methylpropan-2-yl)-2-oxa-4,7,11,12-tetraazahexadecan-14-yl)carbamate], the EC50 rises from 2.78 nM to 9.67 nM (3.5-fold).

`COC(=O)N[C@H](C(=O)N[C@@H](Cc1ccc(-c2ccc(N3CC4CCC(C3)N4C3COC3)nc2)cc1)[C@@H](O)CN(Cc1c(F)cc(-c2nnc(C3CC3)o2)cc1F)NC(=O)[C@@H](NC(=O)OC)C(C)(C)C(F)(F)F)C(C)(C)C(F)(F)F` [Example 205, Methyl ((5S,8S,9S,14S)-11-(4-(5-cyclopropyl-1,3,4-oxadiazol-2-yl)-2,6-difluorobenzyl)-16,16,16-trifluoro-9-hydroxy-15,15-dimethyl-8-(4-(6-(8-(oxetan-3-yl)-3,8-diazabicyclo[3.2.1]octan-3-yl)pyridin-3-yl)benzyl)-3,6,13-trioxo-5-(1,1,1-trifluoro-2-methylpropan-2-yl)-2-oxa-4,7,11,12-tetraazahexadecan-14-yl)carbamate] and `COC(=O)N[C@H](C(=O)N[C@@H](Cc1ccc(-c2cnn(C(F)F)c2)cc1)[C@@H](O)CN(Cc1c(F)cc(-c2cnn(C(F)F)c2)cc1F)NC(=O)[C@@H](NC(=O)OC)C(C)(C)C(F)(F)F)C(C)(C)C(F)(F)F` [Example 211, Methyl ((5S,8S,9S,14S)-11-(4-(1-(difluoromethyl)-1H-pyrazol-4-yl)-2,6-difluorobenzyl)-8-(4-(1-(difluoromethyl)-1H-pyrazol-4-yl)benzyl)-16,16,16-trifluoro-9-hydroxy-15,15-dimethyl-3,6,13-trioxo-5-(1,1,1-trifluoro-2-methylpropan-2-yl)-2-oxa-4,7,11,12-tetraazahexadecan-14-yl)carbamate] are within 1.5-fold of each other in EC50: 5.25 nM for the first, 5.75 nM for the second.

Compared with `CC(C)([C@H](NC(=O)C1CC1)C(=O)N[C@@H](Cc1ccc(-c2cnn(C(F)F)c2)cc1)[C@@H](O)CN(Cc1c(F)cc(-c2ccn(C(F)F)n2)cc1F)NC(=O)[C@@H](NC(=O)C1CC1)C(C)(C)C(F)(F)F)C(F)(F)F` [Example 213, N—((S)-1-(2-((2S,3S)-3-((S)-2-(cyclopropanecarboxamido)-4,4,4-trifluoro-3,3-dimethylbutanamido)-4-(4-(1-(difluoromethyl)-1H-pyrazol-4-yl)phenyl)-2-hydroxybutyl)-2-(4-(1-(difluoromethyl)-1H-pyrazol-3-yl)-2,6-difluorobenzyl)hydrazinyl)-4,4,4-trifluoro-3,3-dimethyl-1-oxobutan-2-yl)cyclopropanecarboxamide], `CC(=O)N[C@H](C(=O)N[C@@H](Cc1ccc(-c2cnn(C(F)F)c2)cc1)[C@@H](O)CN(Cc1c(F)cc(-c2cnn(C(F)F)c2)cc1F)NC(=O)[C@@H](NC(C)=O)C(C)(C)C(F)(F)F)C(C)(C)C(F)(F)F` [Example 217, (S)-2-acetamido-N-((2S,3S)-4-(2-((S)-2-acetamido-4,4,4-trifluoro-3,3-dimethylbutanoyl)-1-(4-(1-(difluoromethyl)-1H-pyrazol-4-yl)-2,6-difluorobenzyl)hydrazinyl)-1-(4-(1-(difluoromethyl)-1H-pyrazol-4-yl)phenyl)-3-hydroxybutan-2-yl)-4,4,4-trifluoro-3,3-dimethylbutanamide] is 23-fold higher in EC50: 4.86 nM for the first, 113 nM for the second. The first is the more potent here.

Compared with `CCC(=O)N[C@H](C(=O)N[C@@H](Cc1ccc(-c2cnn(C(F)F)c2)cc1)[C@@H](O)CN(Cc1c(F)cc(-c2cnn(C(F)F)c2)cc1F)NC(=O)[C@@H](NC(=O)CC)C(C)(C)C(F)(F)F)C(C)(C)C(F)(F)F` [Example 215, (S)—N-((2S,3S)-4-(1-(4-(1-(difluoromethyl)-1H-pyrazol-4-yl)-2,6-difluorobenzyl)-2-((S)-4,4,4-trifluoro-3,3-dimethyl-2-propionamidobutanoyl)hydrazinyl)-1-(4-(1-(difluoromethyl)-1H-pyrazol-4-yl)phenyl)-3-hydroxybutan-2-yl)-4,4,4-trifluoro-3,3-dimethyl-2-propionamidobutanamide], `CC1(C(=O)N[C@H](C(=O)N[C@@H](Cc2ccc(-c3cnn(C(F)F)c3)cc2)[C@@H](O)CN(Cc2c(F)cc(-c3cnn(C(F)F)c3)cc2F)NC(=O)[C@@H](NC(=O)C2(C)CC2)C(C)(C)C(F)(F)F)C(C)(C)C(F)(F)F)CC1` [Example 216, N—((S)-1-(2-(4-(1-(difluoromethyl)-1H-pyrazol-4-yl)-2,6-difluorobenzyl)-2-((2S,3S)-4-(4-(1-(difluoromethyl)-1H-pyrazol-4-yl)phenyl)-2-hydroxy-3-((S)-4,4,4-trifluoro-3,3-dimethyl-2-(1-methylcyclopropane-1-carboxamido)butanamido)butyl)hydrazinyl)-4,4,4-trifluoro-3,3-dimethyl-1-oxobutan-2-yl)-1-methylcyclopropane-1-carboxamide] is 6.3-fold higher in EC50: 18.2 nM for the first, 114 nM for the second.

From patent US10294234B2, “HIV inhibitor compounds” (priority 2017, dated 2019)
